In US9481676B2, “Azepino[4,5-B]indoles and methods of use” (Medivation Technologies, Inc., priority 2008, dated 2016):

These molecules were tested against T1, human recombinant adrenergic α2B receptor (Homo sapiens, UniProt P18089) (assay: Adrenergic alpha2B radioligand binding ([3H]Rauwolscine)). Details: compound at 1 μM; read-out: Adrenergic (1 μM) α2B, percent inhibition of specific binding.
T1 construct: expressed in transfected cells; host or cells: CHO-K1 cells
T1 sequence (P18089 1-450): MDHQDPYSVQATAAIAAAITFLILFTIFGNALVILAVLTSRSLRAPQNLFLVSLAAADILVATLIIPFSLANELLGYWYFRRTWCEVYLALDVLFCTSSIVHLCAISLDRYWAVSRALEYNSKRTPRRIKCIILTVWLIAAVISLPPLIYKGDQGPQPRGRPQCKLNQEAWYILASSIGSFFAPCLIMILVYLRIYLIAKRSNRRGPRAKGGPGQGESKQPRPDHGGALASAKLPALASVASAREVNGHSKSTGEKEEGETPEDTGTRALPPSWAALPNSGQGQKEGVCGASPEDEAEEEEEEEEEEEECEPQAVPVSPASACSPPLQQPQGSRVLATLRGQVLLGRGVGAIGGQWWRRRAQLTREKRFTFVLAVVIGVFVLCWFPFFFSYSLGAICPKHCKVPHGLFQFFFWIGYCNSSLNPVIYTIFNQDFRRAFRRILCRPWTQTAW
Procedure: To evaluate in radioligand binding assays the activity of compounds of the invention, human recombinant adrenergic α2B receptor expressed in Chinese hamster ovary (CHO-K1) cells (Uhlen S et al. Eur J. Pharmacol. 343(1):93, 1998) in a modified Tris-HCl buffer (50 mM Tris-HCl, pH 7.4, 12.5 mM MgCl2, 1 mM EDTA, 0.2% BSA) was used. Compounds of the invention were incubated with 2.5 nM [^3H]Rauwolscine for 60 min. at 25° C. Non-specific binding was estimated in the presence of 10 μM Prozosin. Receptor proteins were filtered and washed, the filters were then counted to determine [^3H]Rauwolscine specifically bound. Compounds were screened at 1 μM or lower, using 1% DMSO as vehicle. Biochemical assay results are presented as the percent inhibition of specific binding in Table 5.

Row | SMILES | inhibition at 1 µM [%]
1 | CN1CCc2c(n(CCc3ccccn3)c3ccc(Cl)cc23)CC1 [Compound No. 8, 9-chloro-1,2,3,4,5,6-hexahydro-3-methyl-6-(2-(pyridin-2-yl)ethyl)azepino[4,5-b]indole] | 103
2 | CN1CCc2c(n(CC(=O)N3CCOCC3)c3ccc(Cl)cc23)CC1 [Compound No. 60, 2-(9-chloro-2,3,4,5-tetrahydro-3-methylazepino[4,5-b]indol-6(1H)-yl)-1-morpholinoethanone] | 53
3 | Cc1ccc2c(c1)c1c(n2CC(=O)N2CCOCC2)CCN(C)CC1 [Compound No. 38, 2-(2,3,4,5-tetrahydro-3,9-dimethylazepino[4,5-b]indol-6(1H)-yl)-1-morpholinoethanone] | 83
4 | C/C(=C\n1c2c(c3cc(C)ccc31)CCN(C)CC2)c1ccc(Cl)cc1 [Compound No. 33, 6-((E)-2-(4-chlorophenyl)prop-1-enyl)-1,2,3,4,5,6-hexahydro-3,9-dimethylazepino[4,5-b]indole] | 103
5 | Cc1ccc2c(c1)c1c(n2CC(=O)OC2CCCC2)CCN(C)CC1 [Compound No. 55, Cyclopentyl-2-(2,3,4,5-tetrahydro-3,9-dimethylazepino[4,5-b]indol-6(1H)-yl)acetate] | 7
6 | Cc1ccc2c(c1)c1c(n2C(=O)Cc2ccc(F)cc2)CCN(C)CC1 [Compound No. 285, 1-(3,9-dimethyl-2,3,4,5-tetrahydroazepino[4,5-b]indol-6(1H)-yl)-2-(4-fluorophenyl) ethanone] | 75
7 | Cc1ccc2c(c1)c1c(n2CCc2ccccn2)CCN(C)CC1 [Compound No. 9, 1,2,3,4,5,6-hexahydro-3,9-dimethyl-6-(2-(pyridin-2-yl)ethyl)azepino[4,5-b]indole] | 90
8 | Cc1ccc2c(c1)c1c(n2/C=C/c2ccc(Cl)cc2)CCN(C)CC1 [Compound No. 235, (E)-6-(4-chlorostyryl)-3,9-dimethyl-1,2,3,4,5,6-hexahydroazepino[4,5-b]indole] | 98
9 | Cc1ccc2c(c1)c1c(n2CC(C)(O)c2ccc(F)cc2)CCN(C)CC1 (stereo not shown) [Compound No. 14, 2-(4-fluorophenyl)-1-(2,3,4,5-tetrahydro-3,9-dimethylazepino[4,5-b]indol-6(1H)-yl)propan-2-ol] | 100
10 | Cc1ccc2c(c1)c1c(n2CC(O)c2ccncc2)CCN(C)CC1 (stereo not shown) [Compound No. 43, 2-(2,3,4,5-tetrahydro-3,9-dimethylazepino[4,5-b]indol-6(1H)-yl)-1-(pyridin-4-yl)ethanol] | 107
11 | CN1CCc2c(n(CCc3ccccc3F)c3ccccc23)CC1 [Compound No. 237, 6-(2-fluorophenethyl)-3-methyl-1,2,3,4,5,6-hexahydroazepino[4,5-b]indole] | 93
12 | Cc1ccc(C(O)Cn2c3c(c4cc(C)ccc42)CCN(C)CC3)cc1 (stereo not shown) [Compound No. 27, 2-(2,3,4,5-tetrahydro-3,9-dimethylazepino[4,5-b]indol-6(1H)-yl)-1-p-tolylethanol] | 100
13 | CN1CCc2c(n(CC(O)c3ccncc3)c3ccc(Cl)cc23)CC1 (stereo not shown) [Compound No. 42, 2-(9-chloro-2,3,4,5-tetrahydro-3-methylazepino[4,5-b]indol-6(1H)-yl)-1-(pyridin-4-yl)ethanol] | 107
14 | Cc1ccc2c(c1)c1c(n2CCc2ccccc2F)CCN(C)CC1 [Compound No. 63, 6-(2-fluorophenethyl)-1,2,3,4,5,6-hexahydro-3,9-dimethylazepino[4,5-b]indole] | 73
15 | CN1CCc2c(n(CC(O)c3ccccc3)c3ccc(Cl)cc23)CC1 (stereo not shown) [Compound No. 24, 2-(9-chloro-2,3,4,5-tetrahydro-3-methylazepino[4,5-b]indol-6(1H)-yl)-1-phenylethanol] | 99
16 | Cc1ccc2c(c1)c1c(n2CCc2cncc(Cl)c2)CCN(C)CC1 [Compound No. 4, 6-(2-(5-chloropyridin-3-yl)ethyl)-1,2,3,4,5,6-hexahydro-3,9-dimethylazepino[4,5-b]indole] | 93
17 | Cc1ccc2c(c1)c1c(n2CC(=O)Nc2ccc(F)cc2)CCN(C)CC1 [Compound No. 44, N-(4-fluorophenyl)-2-(2,3,4,5-tetrahydro-3,9-dimethylazepino[4,5-b]indol-6(1H)-yl)acetamide] | 12
18 | CC(C)NC(=O)Cn1c2c(c3cc(Cl)ccc31)CCN(C)CC2 [Compound No. 31, 2-(9-chloro-2,3,4,5-tetrahydro-3-methylazepino[4,5-b]indol-6(1H)-yl)-N-isopropylacetamide] | 23
19 | CN1CCc2c(n(CC(=O)N3CCCCC3)c3ccc(Cl)cc23)CC1 [Compound No. 57, 2-(9-chloro-2,3,4,5-tetrahydro-3-methylazepino[4,5-b]indol-6(1H)-yl)-1-(piperidin-1-yl)ethanone] | 87
